Test results published in patent US20230391796A1, “GLYCOSIDASE INHIBITORS AND USES THEREOF” (UNIVERSIDAD DE SEVILLA (US) -UNIVERSITY OF SEVILLE (US), priority 2020, published 2023).
pKi: −log10 of the molar value. Structures can show the parent of a compound that is named as a salt.

Assays:
hOGA = molecular target: T1, hOGA (Homo sapiens, UniProt O60502); test: Inhibition assay against hOGA, resorufin N-acetyl-β-D-glucosaminide fluorescence; assay type: biochemical; details: 0.2 nM hOGA, 25 μM substrate, pH 7.1; Morrison Ki
T1 sequence (O60502 1-916): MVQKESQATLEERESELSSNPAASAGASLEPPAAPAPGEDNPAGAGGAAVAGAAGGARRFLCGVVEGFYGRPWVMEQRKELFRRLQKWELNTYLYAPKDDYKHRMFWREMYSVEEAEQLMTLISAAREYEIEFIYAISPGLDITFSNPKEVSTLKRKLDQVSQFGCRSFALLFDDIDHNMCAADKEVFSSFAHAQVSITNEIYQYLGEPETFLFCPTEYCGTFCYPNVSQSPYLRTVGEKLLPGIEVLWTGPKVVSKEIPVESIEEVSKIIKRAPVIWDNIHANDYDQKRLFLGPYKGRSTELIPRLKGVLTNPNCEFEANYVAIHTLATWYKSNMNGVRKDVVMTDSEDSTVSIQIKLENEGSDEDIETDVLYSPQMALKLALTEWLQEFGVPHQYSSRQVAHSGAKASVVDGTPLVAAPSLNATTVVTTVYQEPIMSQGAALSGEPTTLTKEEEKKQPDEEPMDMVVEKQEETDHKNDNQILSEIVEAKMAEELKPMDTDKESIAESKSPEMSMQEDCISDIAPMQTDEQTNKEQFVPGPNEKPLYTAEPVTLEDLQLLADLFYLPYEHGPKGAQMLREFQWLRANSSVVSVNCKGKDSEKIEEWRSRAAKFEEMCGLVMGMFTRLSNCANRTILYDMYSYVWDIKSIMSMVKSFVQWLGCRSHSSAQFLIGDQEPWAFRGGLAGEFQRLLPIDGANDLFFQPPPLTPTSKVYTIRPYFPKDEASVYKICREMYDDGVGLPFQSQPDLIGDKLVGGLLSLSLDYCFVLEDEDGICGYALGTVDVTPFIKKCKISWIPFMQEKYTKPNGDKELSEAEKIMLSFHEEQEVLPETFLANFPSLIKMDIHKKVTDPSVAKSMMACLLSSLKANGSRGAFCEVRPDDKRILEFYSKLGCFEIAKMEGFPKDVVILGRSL
Experimental: Inhibition Assays Against hOGA
Km=25 μM was measured with these conditions. Inhibition assays were run at 0.2 nM [hOGA] in the same buffer, in the presence or absence of various concentrations of inhibitors and at a fixed substrate concentration of 25 μM and 1% DMSO. First, inhibitor was serially diluted to the desired range of concentrations in 2% DMSO buffer. Next, 50 μL of inhibitor solutions at various concentrations in 2% DMSO Buffer was added to 50 μL of 0.8 nM enzyme and allowed to incubate at 25° C. for 5 minutes. 100 uL of 50 μM and 1% DMSO substrate was then added and reaction mixture was immediately mixed and aliquoted in 45 μL triplicates to a CORNING 384 well black plate. Fluorescence signal was measured continuously for 20 minutes at 37° C. in a BioTek Neo 2 Plate reader set at excitation and emission wavelengths of 572 and 610 nm, respectively. Max reaction rates for all inhibitor concentrations were calculated within Gen5 BioTek reader software. % Activity was subsequently calculated for each inhibitor concentration against the max reaction rate of uninhibited hOGA. GraphPad Prism 2016 was used to approximate the Morrison Ki values for each inhibitor.

[1] = molecular target: T2, Recombinant Human Hexosaminidase B (HexB) (Homo sapiens, UniProt P07686); test: Inhibition assay against rhHexB, 4-methylumbelliferone N-acetyl-β-D-galactosaminide fluorescence; assay type: biochemical; details: 5 nM HexB, 150 μM substrate, pH 5.5; NI = no inhibition detected at 200 μM; read-out: hHexB
T2 construct: purchased R&D Systems 8907-GH-020
T2 sequence (P07686 122-556): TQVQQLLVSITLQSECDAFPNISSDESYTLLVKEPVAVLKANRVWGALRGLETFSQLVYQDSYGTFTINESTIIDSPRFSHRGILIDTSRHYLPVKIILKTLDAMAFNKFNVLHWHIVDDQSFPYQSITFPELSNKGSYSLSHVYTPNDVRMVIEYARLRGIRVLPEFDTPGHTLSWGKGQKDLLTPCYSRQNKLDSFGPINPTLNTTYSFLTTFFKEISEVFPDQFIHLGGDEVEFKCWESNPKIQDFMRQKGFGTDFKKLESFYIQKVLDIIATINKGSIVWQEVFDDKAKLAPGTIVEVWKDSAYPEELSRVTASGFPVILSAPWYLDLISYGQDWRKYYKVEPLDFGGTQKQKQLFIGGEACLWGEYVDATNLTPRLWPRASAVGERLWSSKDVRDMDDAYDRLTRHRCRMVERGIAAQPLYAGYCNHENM
Experimental: Inhibition Assays Against rhHexB
Inhibition constant (Ki) values for compounds against Recombinant Human Hexosaminidase B (HexB) enzyme, purchased from R&D Systems (cat# 8907-GH-020) are determined by measuring the change in fluorescent signal corresponding to the rate of hydrolytic activity against the commercially available artificial substrate, 4-Methylumbelliferone N-acetyl-β-D-galactosaminide. HexB activity assays were performed in a buffer 100 mM MES at pH 5.5 and 5 nM [HexB]. Inhibition assays were in the presence or absence of various concentrations of inhibitors and at a fixed substrate concentration of 150 μM and 1% DMSO. First, inhibitor was serially diluted to the desired range of concentrations in 2% DMSO buffer. Next, 50 μL, of inhibitor solutions at various concentrations in 2% DMSO Buffer was added to 50 μL of 20 nM enzyme and allowed to incubate at 25° C. for 5 minutes. 100 μL, of 300 μM and 1% DMSO substrate was then added and reaction mixture was immediately mixed and aliquoted in 45 μL triplicates to a CORNING 384 well black plate. Fluorescence signal was measured continuously for 20 minutes at 25° C. in a BioTek Neo 2 Plate reader set at excitation and emission wavelengths of 355 and 450 nm, respectively. Max reaction rates for all inhibitor concentrations were calculated within Gen5 BioTek reader software. % Activity was subsequently calculated for each inhibitor concentration against the max reaction rate of uninhibited HexB. GraphPad Prism 2016 was used to approximate the Morrison Ki values for each inhibitor.

Row | Compound | pKi (hOGA) | pKi [1]
1 | CCCNC(=S)N[C@H]1CN2/C(=N/Cc3ccccc3)SC[C@@H]2[C@@H](O)[C@@H]1O [Compound 19, 2-Propylthioureido-5-N,6-S-(N′-benzyliminomethylidene)-1,2-dideoxy-6-thionojirimycin] | 6.12 | < 3.70
2 | CCCC(=O)N[C@H]1CN2/C(=N/Cc3ccccc3)SC[C@@H]2[C@@H](O)[C@@H]1O [Compound 17, 2-Butanamido-5-N,6-S-(N′-benzyliminomethylidene)-1,2-dideoxy-6-thionojirimycin] | 6.47 | < 3.70
3 | CC(C)C(=O)N[C@H]1CN2/C(=N/Cc3ccccc3)SC[C@@H]2[C@@H](O)[C@@H]1O [Compound 16, 2-Isobutanamido-5-N,6-S-(N′-benzyliminomethylidene)-1,2-dideoxy-6-thionojirimycin Hydrochloride] | 6.05 | < 3.70
4 | CCNC(=S)N[C@H]1CN2/C(=N/Cc3ccccc3)SC[C@@H]2[C@@H](O)[C@@H]1O [Compound 18, 2-Ethylthioureido-5-N,6-S-(N′-benzyliminomethylidene)-1,2-dideoxy-6-thionojirimycin] | 5.98 | < 3.70

Molecules with a higher pKi (hOGA), results first:

Row | pKi (hOGA) | pKi [1] | Compound
5 | 9.15 | < 3.70 | CCC(=O)N[C@H]1CN2/C(=N/Cc3cccc4ccccc34)SC[C@@H]2[C@@H](O)[C@@H]1O [Compound 14, 2-Propionamido-5-N,6-S-(N′-1-naphthylmethyliminomethylidene)-1,2-dideoxy-6-thionojirimycin hydrochloride]
6 | 9.18 | < 3.70 | CCC(=O)N[C@H]1CN2/C(=N/Cc3ccc4[nH]ccc4c3)SC[C@@H]2[C@@H](O)[C@@H]1O [Compound 15, 2-Propionamido-5-N,6-S-(N′-5-indolylmethyliminomethylidene)-1,2-dideoxy-6-thionojirimycin hydrochloride]
7 | 8.10 | < 3.70 | CCC(=O)N[C@H]1CN2/C(=N/Cc3ccccc3)SC[C@@H]2[C@@H](O)[C@@H]1O [Compound 13, 2-Propanamido-5-N,6-S-(N′-benzyliminomethylidene)-1,2-dideoxy-6-thionojirimycin Hydrochloride]
